Data as given in PMC5540250, “Influence of the Number of Axial Bexarotene Ligands on the Cytotoxicity of Pt(IV) Analogs of Oxaliplatin” (Bioinorganic Chemistry and Applications, 2017).
Read-outs that look alike come from different tables or passages of the source.

Assays:
[1] = test system: immortalized human nonmalignant keratinocyte HaCat cell line; assay: MTT cytotoxicity test, 72 h, HaCat; assay type: cell-based; settings: HaCat nonmalignant keratinocytes, mean ± standard deviation from 3 independent experiments
Procedure: (§1) The MCF7, MCF7D (gift of N. I. Moiseeva), HaCat, A549, and SW480 cell lines were cultured in Dulbecco modified Eagle's medium (DMEM; PanEco, Russia) with 10% fetal bovine serum (HyClone, USA) and antibiotics (PanEco, Russia) in 5% CO2, 37°C. The compounds were predissolved at 20 mM in dimethyl sulfoxide (DMSO) and added to the cell culture at the required concentration with maximum DMSO content of 0.5 v/v%. Cells in 96-well plates (7 × 10^3 cells/well) were treated with various concentrations of 3, 4, cisplatin, or bexarotene at 37°C for 72 h. Cell viability was determined using the MTT assay as follows: cells were incubated at 37°C for 4 h with 20 μl of 5 mg/ml solution of 3-(4,5-dimethylthiazol-2-yl)-2,5 diphenyltetrazolium bromide (Sigma-Aldrich, St. Louis, USA). The supernatant was discarded and formazan was dissolved in 150 μl of DMSO. The optical density of the solution was measured at 550 nm on a multiwell plate reader (Multiskan FC, Thermo Fisher Scientific, USA). The percentage of viable (i.e., MTT converting) cells was calculated from the absorbance of untreated cells (100%). Each experiment was repeated three times, and each concentration was tested in three replicates.
(§2) The cytotoxicity of complexes 3 and 4, bexarotene, and cisplatin was evaluated in the human MCF7 breast cancer cell line and its doxorubicin/cisplatin resistant subline MCF7D, as well as against colon carcinoma SW480 cells, non-small cell lung carcinoma A549, and immortalized human nonmalignant keratinocyte HaCat cell line using the colorimetric MTT-test after 72 h of incubation (Table 1). The cytotoxic potency of oxaliplatin, the Pt(II) precursor of the new complexes, was taken from literature.

[2] = test system: human MCF7 breast cancer cell line; assay: MTT cytotoxicity test, 72 h, MCF7; assay type: cell-based; settings: MCF7 cells, mean ± standard deviation from 3 independent experiments
Procedure: as §1, §2

[3] = test system: doxorubicin/cisplatin resistant subline MCF7D; assay: MTT cytotoxicity test, 72 h, MCF7D; assay type: cell-based, human; settings: MCF7D cells (doxorubicin/cisplatin resistant), mean ± standard deviation from 3 independent experiments
Procedure: as §1, §2

[4] = test system: colon carcinoma SW480 cells; assay: MTT cytotoxicity test, 72 h, SW480; assay type: cell-based, human; settings: mean ± standard deviation from 3 independent experiments
Procedure: as §1, §2

[5] = test system: non-small cell lung carcinoma A549; assay: MTT cytotoxicity test, 72 h, A549; assay type: cell-based, human; settings: A549 cells, mean ± standard deviation from 3 independent experiments
Procedure: as §1, §2

[6] = test system: human MCF7 breast cancer cell line; design: method as in PMID 22213516; settings: MCF7 cells; taken from literature; cited from earlier work
[7] = test system: non-small cell lung carcinoma A549; design: method as in PMID 22331606; settings: A549 cells; taken from literature; cited from earlier work
[8] = test system: colon carcinoma SW480 cells; design: method as in PMID 22331606; settings: taken from literature; cited from earlier work

Molecule | IC50 [1] | IC50 [2] | IC50 [3] | IC50 [4] | IC50 [5] | further results
C=C(c1ccc(C(=O)O)cc1)c1cc2c(cc1C)C(C)(C)CCC2(C)C [Bexarotene, 4-(1-(3,5,5,8,8-pentamethyl-5,6,7,8-tetrahydro-2-naphthyl)vinyl)benzoic acid] | – | – | – | – | – | IC50 ([1]; Homo sapiens): > 90 µM; IC50 ([2]; Homo sapiens): 67 ± 13 µM; IC50 ([3]; Homo sapiens): 71 ± 21 µM; IC50 ([4]; Homo sapiens): 80 ± 10 µM; IC50 ([5]; Homo sapiens): 85 ± 9 µM
N.N.[Cl][Pt][Cl] [Cisplatin] | 30 ± 10 µM | 14 ± 7 µM | 75 ± 5.8 µM | 14 ± 4.4 µM | 29 ± 10 µM | –
O=C(O)C(=O)O.[NH-][C@@H]1CCCC[C@H]1[NH-].[Pt+2] [Oxaliplatin] | – | – | – | – | – | IC50 [6]: 43.8 µM; IC50 [7]: 11.5 ± 3.9 µM; IC50 [8]: 0.9 ± 0.3 µM
(OC-6-33)-(trans-1R,2R-Diaminocyclohexane)-bis(4-(1-(3,5,5,8,8-pentamethyl-5,6,7,8-tetrahydro-2-naphthyl)vinyl)benzoato)oxalatoplatinum(IV) [Complex 3] | > 100 µM | > 100 µM | > 100 µM | > 100 µM | 83 ± 16 µM | –
(OC-6-44)-acetato(trans-1R,2R-Diamineocyclohexane)-4-(1-(3,5,5,8,8-pentamethyl-5,6,7,8-tetrahydro-2-naphthyl)vinyl)benzoato)oxalatoplatinum(IV) [Complex 4] | 8 ± 1.3 µM | 0.47 ± 0.07 µM | 4.8 ± 0.5 µM | 11 ± 1.6 µM | 10 ± 1 µM | IC50 MCF7 [2]: submicromolar range
